Assay results: patent US20160075653A1, “NEMATICIDAL N-(PHENYLCYCLOALKYL)CARBOXAMIDES AND N-(PHENYLCYCLOALKYL)THIOCARBOXAMIDES” (BAYER CROPSCIENCE AKTIENGESELLSCHAFT, priority 2013, published 2016)

test: Measurement of log P values by HPLC on reversed phase columns (methods [a] pH 2.3, [b] pH 2.7, [c] pH 7.8); format: physicochemical; conditions: HPLC on reversed phase columns, method [b], pH 2.7
Protocol: Measurement of log P-Values:
Measurement of log P Values was Performed According EEC Directive 79/831 Annex V.A8 by HPLC (High Performance Liquid
Chromatography) on reversed phase columns with the following methods: ^[a] Measurement was done at pH 2.3 with 0.1% phosphoric acid and acetonitrile as eluent with a linear gradient from 10% acetonitrile to 95% acetonitrile. ^[b] measurement of LC-MS was done at pH 2.7 with 0.1% formic acid in water and with acetonitrile (contains 0.1% formic acid) as eluent with a linear gradient from 10% acetonitrile to 95% acetonitrile. ^[c] Measurement with LC-MS was done at pH 7.8 with 0.001 molar ammonium hydrogen carbonate solution in water as eluent with a linear gradient from 10% acetonitrile to 95% acetonitrile.
Calibration was done with linear alkan-2-ones (with 3 to 16 carbon atoms) with known log P-values (measurement of log P values using retention times with linear interpolation between successive alkanones). Lambda-max-values were determined using UV-spectra from 200 nm to 400 nm and the peak values of the chromatographic signals.

Which logP does the source give for `O=C(N[C@@H]1CCC[C@@H]1c1ccc(F)c(F)c1)c1ccccc1OC(F)(F)F` (relative stereo) [Example 95] here?
Its logP is 3.76^[b].

Which logP does the source give for `O=C(N[C@@H]1CCC[C@@H]1c1ccc(F)c(F)c1)c1sccc1Br` (relative stereo) [Example 96] here?
Its logP is 3.79^[b].

For `Nc1nc(C(F)(F)F)c(C(=O)N[C@@H]2CCC[C@@H]2c2ccc(F)c(F)c2)s1` (relative stereo) [Example 97], which logP is on record?
Its logP is 2.82^[b].

For `O=C(N[C@@H]1CCC[C@@H]1c1ccc(F)c(F)c1)c1ccccc1Cc1ccccc1` (relative stereo) [Example 98], which logP is on record?
Its logP is 4.26^[b].

For `Cn1cc(C(=O)N[C@@H]2CCC[C@@H]2c2ccc(F)c(F)c2)c(I)n1` (relative stereo) [Example 99], which logP is on record?
The logP was 2.75^[b].

With `Cn1ccc(I)c1C(=O)N[C@@H]1CCC[C@@H]1c1ccc(F)c(F)c1` (relative stereo) [Example 100] as the compound, how does the logP read?
The logP was 3.83^[b].

With `O=C(N[C@@H]1CCC[C@@H]1c1ccc(F)c(F)c1)c1sccc1I` (relative stereo) [Example 101] as the compound, how does the logP read?
Its logP is 3.79^[b].

With `Cc1oncc1C(=O)N[C@@H]1CCC[C@H]1c1ccc(F)c(F)c1` (relative stereo) [Example 102] as the compound, how does the logP read?
Its logP is 2.82^[b].

With `Cc1cccnc1C(=O)N[C@@H]1CCC[C@H]1c1ccc(F)c(F)c1` (relative stereo) [Example 103] as the compound, how does the logP read?
The logP was 3.33^[b].

Which logP does the source give for `Cc1ncncc1C(=O)N[C@@H]1CCC[C@H]1c1ccc(F)c(F)c1` (relative stereo) [Example 104] here?
Its logP is 2.21^[b].

Which logP does the source give for `O=C(N[C@@H]1CCC[C@H]1c1ccc(F)c(F)c1)c1ccccc1F` (relative stereo) [Example 105] here?
Its logP is 3.35^[b].

With `O=C(N[C@@H]1CCC[C@H]1c1ccc(F)c(F)c1)c1cccnc1F` (relative stereo) [Example 106] as the compound, how does the logP read?
The logP was 2.80^[b].

Which logP does the source give for `O=C(N[C@@H]1CCC[C@H]1c1ccc(F)c(F)c1)c1ccncc1F` (relative stereo) [Example 107] here?
Its logP is 2.62^[b].

With `Cc1ncc(C(=O)N[C@@H]2CCC[C@H]2c2ccc(F)c(F)c2)s1` (relative stereo) [Example 108] as the compound, how does the logP read?
The logP was 2.64^[b].

With `Cc1nnsc1C(=O)N[C@@H]1CCC[C@H]1c1ccc(F)c(F)c1` (relative stereo) [Example 109] as the compound, how does the logP read?
The logP was 2.92^[b].

For `N#Cc1ncccc1C(=O)N[C@@H]1CCC[C@H]1c1ccc(F)c(F)c1` (relative stereo) [Example 110], which logP is on record?
Its logP is 3.31^[b].

For `Cn1cccc1C(=O)N[C@@H]1CCC[C@@H]1c1ccc(F)c(F)c1` (relative stereo) [Example 111], which logP is on record?
Its logP is 3.13^[b].

With `Cc1oncc1C(=O)N[C@@H]1CCC[C@@H]1c1ccc(F)c(F)c1` (relative stereo) [Example 112] as the compound, how does the logP read?
Its logP is 2.73^[b].

With `Cn1cc(C(=O)N[C@@H]2CCC[C@@H]2c2ccc(F)c(F)c2)c(=O)[nH]1` (relative stereo) [Example 113] as the compound, how does the logP read?
Its logP is 2.00^[b].

With `CCc1ccccc1C(=O)N[C@@H]1CCC[C@@H]1c1ccc(F)c(F)c1` (relative stereo) [Example 114] as the compound, how does the logP read?
Its logP is 3.75^[b].

For `COc1c(C(=O)N[C@@H]2CCC[C@@H]2c2ccc(F)c(F)c2)c(C)nn1C` (relative stereo) [Example 116], which logP is on record?
Its logP is 2.59^[b].

Which logP does the source give for `Cc1ccc(C(=O)N[C@@H]2CCC[C@@H]2c2ccc(F)c(F)c2)c(Cl)n1` (relative stereo) [Example 117] here?
The logP was 2.86^[b].

Which logP does the source give for `CC(C)Oc1nn(C)cc1C(=O)N[C@@H]1CCC[C@@H]1c1ccc(F)c(F)c1` (relative stereo) [Example 118] here?
The logP was 3.27^[b].

Which logP does the source give for `O=C(N[C@@H]1CCC[C@@H]1c1ccc(F)c(F)c1)c1ccccc1OC(F)F` (relative stereo) [Example 119] here?
The logP was 3.51^[b].

With `O=C(N[C@@H]1CCC[C@@H]1c1ccc(F)c(F)c1)c1c(Cl)ccnc1Cl` (relative stereo) [Example 120] as the compound, how does the logP read?
Its logP is 3.02^[b].

Which logP does the source give for `O=C(N[C@@H]1CCC[C@@H]1c1ccc(F)c(F)c1)c1snc(Cl)c1Cl` (relative stereo) [Example 121] here?
The logP was 4.19^[b].

For `Cn1nc(C(F)(F)F)c(C(=O)N[C@@H]2CCC[C@@H]2c2ccc(F)c(F)c2)c1F` (relative stereo) [Example 122], which logP is on record?
Its logP is 3.27^[b].
